Laboratory results: paper PMC11876601 (Molecular Systems Biology, 2025)
Several values for one entry are separate records, joined by “and”; a condition that tells them apart may be missing. Equal values may be shown once. Read-outs that look alike come from different tables or passages of the source.

Legend:
Suit2-07 = assay: cells; set-up: Viability of PDAC cell lines, ATPlite luminescence, 11-dose single-agent curve fit; conditions: 72 h, read-out: EC50 [nM]
Description: (§1) Afterward, small amounts were transferred to 384-well intermediate plates (Greiner Bio-One GmbH, Germany). […] For drug combination screening, 1000 to 5000 cells were seeded into 384-well plates (CulturPlate™, Perkin Elmer, MA, USA) using a Multidrop™ Combi Reagent Dispenser (Thermo Scientific, MA, USA) in 50 µl medium per well 24 h prior to drug treatment (seeding densities see Appendix Table S1). […] The final DMSO concentration in each well was 0.2%. […] Eight wells per plate without library drug served as negative controls, and sixteen wells per plate containing 5 µM Staurosporine served as positive controls. […] Next, we analyzed the drug sensitivity of immortalized duct cell line HPDE to detect effects unrelated to pancreatic cancer.

PaTu-8988-T = assay: cells; set-up: Viability of PDAC cell lines, ATPlite luminescence, 11-dose single-agent curve fit; conditions: Homo sapiens, PaTu 8988t, 72 h, read-out: EC50 [nM]
Description: as §1

Dan-G = assay: cells; set-up: Viability of PDAC cell lines, ATPlite luminescence, 11-dose single-agent curve fit; conditions: 72 h, read-out: EC50 [nM]
Description: as §1

BxPC-3 = assay: cells; set-up: Viability of PDAC cell lines, ATPlite luminescence, 11-dose single-agent curve fit; conditions: Homo sapiens, BXPC-3, 72 h, read-out: EC50 [nM]
Description: as §1

PANC-1 = assay: cells; set-up: Viability of PDAC cell lines, ATPlite luminescence, 11-dose single-agent curve fit; conditions: Homo sapiens, PANC-1, 72 h, read-out: EC50 [nM]
Description: as §1

HPDE = assay: cells; set-up: Viability of PDAC cell lines, ATPlite luminescence, 11-dose single-agent curve fit; conditions: HPDE, 72 h, read-out: EC50 [nM]
Description: as §1

PSN-1 [1] = assay: cells; set-up: Viability of PDAC cell lines, ATPlite luminescence, 11-dose single-agent curve fit; conditions: Homo sapiens, PSN1, 72 h, read-out: EC50 [nM]
Description: as §1

FAMPAC = assay: cells; set-up: Viability of PDAC cell lines, ATPlite luminescence, 11-dose single-agent curve fit; conditions: 72 h, read-out: EC50 [nM]
Description: as §1

Capan-1 = assay: cells; set-up: Viability of PDAC cell lines, ATPlite luminescence, 11-dose single-agent curve fit; conditions: Homo sapiens, CAPAN-1, 72 h, read-out: EC50 [nM]
Description: as §1

HuP-T4 = assay: cells; set-up: Viability of PDAC cell lines, ATPlite luminescence, 11-dose single-agent curve fit; conditions: Homo sapiens, HuP-T4, 72 h, read-out: EC50 [nM]
Description: as §1

AsPC-1 = assay: cells; set-up: Viability of PDAC cell lines, ATPlite luminescence, 11-dose single-agent curve fit; conditions: Homo sapiens, ASPC1, 72 h, read-out: EC50 [nM]
Description: as §1

Colo-357 = assay: cells; set-up: Viability of PDAC cell lines, ATPlite luminescence, 11-dose single-agent curve fit; conditions: Homo sapiens, COLO357, 72 h, read-out: EC50 [nM]
Description: as §1

PSN-1 [2] = assay: cells; set-up: ATPlite luminescence viability of PDAC cell lines, 11-dose single-agent curves, 4-parameter fit; conditions: Homo sapiens, PSN1, 72 h, read-out: EC50 [nM]
Description: as §1

MiaPaCa-2 = assay: cells; set-up: ATPlite luminescence viability of PDAC cell lines, 11-dose single-agent curves, 4-parameter fit; conditions: Homo sapiens, MIA PaCa-2, 72 h, read-out: EC50 [nM]
Description: as §1

AsPC-1 cells = assay: Cell proliferation assay, chemodrug + ATR inhibitor (Incucyte confluence, 72 h); conditions: for EC50: Homo sapiens;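 as to all read-outs here: underlying read-out for every value is AsPC-1 confluence after 72 h incubation at 37 °C and 5% CO2, divided by that well's starting confluence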
Description: Cells were seeded at 5000 cells/well into 96-well flat bottom plates (Eppendorf) and allowed to attach overnight. […] Cells were incubated for 72 h at 37 °C and 5% CO2. Cell confluence readouts at 72 h were either normalized to their initial confluence using the Incucyte software (AsPC-1) or used without prior normalization (all others). […] Each experiment was performed in triplicates, the data was plotted as mean ± standard deviation (s.d.).

[3] = AsPC-1, Experiment GEM (no ATRi), single replicates R1-R3
[4] = AsPC-1, Experiment GEM+ATRi_dose1, single replicates R1-R3
[5] = AsPC-1, Experiment GEM+ATRi_dose2, single replicates R1-R3
[6] = AsPC-1, Experiment GEM+ATRi_dose3, single replicates R1-R3

CNC(=O)c1ccc(-c2cnc3ncc(Cc4ccc5ncccc5c4)n3n2)cc1F [Capmatinib]
EC50 (Suit2-07): 6000 nM
EC50 (PaTu-8988-T): > 10000 nM
EC50 (Dan-G): 451 nM
EC50 (BxPC-3): 323 nM
EC50 (PANC-1): > 10000 nM
EC50 (HPDE): 1090 nM
EC50 (PSN-1 [1]): 521 nM
EC50 (FAMPAC): 8.91 nM
EC50 (Capan-1): 6320 nM
EC50 (HuP-T4): 3120 nM
EC50 (AsPC-1): 1.63 nM

Cc1cccc(-c2nn3c(c2-c2ccnc4ccc(C(N)=O)cc24)CCC3)n1 [Galunisertib]
EC50 (Suit2-07): 3360 nM
EC50 (PaTu-8988-T): 98.7 nM
EC50 (Colo-357): 302 nM
EC50 (Dan-G): 47.4 nM
EC50 (BxPC-3): 333 nM
EC50 (PANC-1): 60.8 nM
EC50 (HPDE): 230 nM
EC50 (PSN-1 [1]): 0.11 nM
EC50 (FAMPAC): 155 nM
EC50 (Capan-1): 151 nM
EC50 (HuP-T4): 1480 nM
EC50 (AsPC-1): 72.9 nM

NC(=O)c1cnc2[nH]ccc2c1N[C@@H]1[C@@H]2CC3C[C@H]1C[C@@](O)(C3)C2 [Peficitinib]
EC50 (PSN-1 [2]): 6420 nM
EC50 (MiaPaCa-2): 3920 nM
EC50 (Suit2-07): 2770 nM
EC50 (PaTu-8988-T): > 10000 nM
EC50 (Colo-357): 6330 nM
EC50 (Dan-G): 3590 nM
EC50 (BxPC-3): > 10000 nM
EC50 (PANC-1): 282 nM
EC50 (HPDE): 8470 nM
EC50 (FAMPAC): > 10000 nM
EC50 (Capan-1): > 10000 nM
EC50 (HuP-T4): 116 nM
EC50 (AsPC-1): > 10000 nM

CC(C)(C)c1cc(NC(=O)Nc2ccc(-c3cn4c(n3)sc3cc(OCCN5CCOCC5)ccc34)cc2)no1 [Quizartinib]
EC50 (MiaPaCa-2): 1410 nM
EC50 (Suit2-07): 155 nM
EC50 (PaTu-8988-T): 96.7 nM
EC50 (Colo-357): 61.4 nM
EC50 (Dan-G): 932 nM
EC50 (BxPC-3): 1570 nM
EC50 (PANC-1): 515 nM
EC50 (HPDE): 2670 nM
EC50 (PSN-1 [1]): 1470 nM
EC50 (FAMPAC): 2490 nM
EC50 (Capan-1): 1420 nM
EC50 (HuP-T4): 1020 nM
EC50 (AsPC-1): 1530 nM

O=C1[O][Pt]2([NH][C@@H]3CCCC[C@H]3[NH]2)[O]C1=O [Oxaliplatin]
pEC50 (AsPC-1 cells): 6.56
sensitization of AsPC-1 cells to the chemodrug by Elimusertib (AsPC-1 cells): sensitized

CC(=O)O[C@H]1C(=O)[C@@]2(C)[C@H]([C@H](OC(=O)c3ccccc3)[C@]3(O)C[C@H](OC(=O)[C@H](O)[C@@H](NC(=O)c4ccccc4)c4ccccc4)C(C)=C1C3(C)C)[C@]1(OC(C)=O)CO[C@@H]1C[C@@H]2O [Paclitaxel]
Curve slope (AsPC-1 cells; [3]): 1.97 and 2.99 and 2.20
Curve top (AsPC-1 cells; [3]): 0.44 and 0.38 and 0.36
Curve slope (AsPC-1 cells; [4]): 1.47 and 2.08 and 1.46
Curve top (AsPC-1 cells; [4]): 0.45 and 0.37 and 0.39
Curve slope (AsPC-1 cells; [5]): 2.59 and 1.83 and 1.78
Curve top (AsPC-1 cells; [5]): 0.45 and 0.38 and 0.37
Curve bottom (AsPC-1 cells; [6]): 0.92 and 0.80
Curve slope (AsPC-1 cells; [6]): 2.50 and 1.97 and 3.20
Curve top (AsPC-1 cells; [6]): 0.42 and 0.35 and 0.36
EC50 (AsPC-1 cells; ASPC1, 72 h, AsPC-1, Experiment GEM (no ATRi), single replicates R1-R3): 1.89 nM
EC50 (AsPC-1 cells; ASPC1, 72 h, read-out: EC50 mean [nM], AsPC-1, Experiment GEM (no ATRi), mean of R1-R3, repeated in each replicate line): 2.09 nM
EC50 (AsPC-1 cells; ASPC1, 72 h, read-out: pEC50, AsPC-1 (converted), Experiment GEM (no ATRi), single replicates R1-R3): 1.91 nM
EC50 (AsPC-1 cells; ASPC1, read-out: EC50 mean [nM], AsPC-1, Experiment GEM (no ATRi), mean of R1-R3, repeated in each replicate line): 2.09 nM
EC50 (AsPC-1 cells; ASPC1, read-out: EC50 mean [nM], AsPC-1, Experiment GEM+ATRi_dose1, mean of R1-R3, repeated in each replicate line): 2.62 nM
EC50 (AsPC-1 cells; ASPC1, read-out: EC50 mean [nM], AsPC-1, Experiment GEM+ATRi_dose3, mean of R1-R3, repeated in each replicate line): 2.03 nM
Response (AsPC-1 cells; chemodrug 1 nM + ATRi 3 nM): 78.95 and 82.15 and 71.41
Response (AsPC-1 cells; chemodrug 1 nM + ATRi 10 nM): 76.45 and 74.25 and 74.55
Response (AsPC-1 cells; chemodrug 1 nM + ATRi 30 nM): 75.55 and 68.26 and 64.62
Response (AsPC-1 cells; chemodrug 1 nM alone (ATRi 0 nM)): 78.71 and 81.33 and 75.17
Response (AsPC-1 cells; chemodrug 3 nM + ATRi 3 nM): 63.11 and 58.53 and 53.51
Response (AsPC-1 cells; chemodrug 3 nM + ATRi 10 nM): 46.62 and 47.02 and 47.86
Response (AsPC-1 cells; chemodrug 3 nM + ATRi 30 nM): 47.65 and 42.95 and 41.75
Response (AsPC-1 cells; chemodrug 3 nM alone (ATRi 0 nM)): 51.76 and 52.32 and 44.31
Response (AsPC-1 cells; chemodrug 10 nM + ATRi 3 nM): 44.83 and 35.01 and 34.23
Response (AsPC-1 cells; chemodrug 10 nM + ATRi 10 nM): 38.43 and 33.69 and 33.51
Response (AsPC-1 cells; chemodrug 10 nM + ATRi 30 nM): 39.64 and 34.49 and 30.28
Response (AsPC-1 cells; chemodrug 10 nM alone (ATRi 0 nM)): 41.65 and 34.17 and 31.46
Response (AsPC-1 cells; chemodrug 30 nM + ATRi 3 nM): 39.42 and 37.16 and 36.82
Response (AsPC-1 cells; chemodrug 30 nM + ATRi 10 nM): 50.74 and 48.74 and 42.64
Response (AsPC-1 cells; chemodrug 30 nM + ATRi 30 nM): 37.65 and 29.32 and 30.21
Response (AsPC-1 cells; chemodrug 30 nM alone (ATRi 0 nM)): 37.54 and 28.80 and 29.10
Response (AsPC-1 cells; chemodrug 100 nM + ATRi 3 nM): 42.23 and 38.61 and 46.44
Response (AsPC-1 cells; chemodrug 100 nM + ATRi 10 nM): 39.32 and 32.95 and 29.28
Response (AsPC-1 cells; chemodrug 100 nM + ATRi 30 nM): 43.96 and 36.95 and 33.77
Response (AsPC-1 cells; chemodrug 100 nM alone (ATRi 0 nM)): 39.78 and 30.74 and 27.32
Response (AsPC-1 cells; chemodrug 300 nM + ATRi 3 nM): 37.81 and 31.67 and 30.77
Response (AsPC-1 cells; chemodrug 300 nM + ATRi 10 nM): 33.31 and 30.07 and 28.41
Response (AsPC-1 cells; chemodrug 300 nM + ATRi 30 nM): 35.70 and 31.17 and 27.41
Response (AsPC-1 cells; chemodrug 300 nM alone (ATRi 0 nM)): 37.36 and 36.59 and 31.62
Response (AsPC-1 cells; chemodrug 1000 nM + ATRi 3 nM): 37.14 and 28.54 and 28.57
Response (AsPC-1 cells; chemodrug 1000 nM + ATRi 10 nM): 36.12 and 27.22 and 30.37
Response (AsPC-1 cells; chemodrug 1000 nM + ATRi 30 nM): 34.38 and 27.12 and 28.86
Response (AsPC-1 cells; chemodrug 1000 nM alone (ATRi 0 nM)): 37.88 and 33.79 and 33.23
Response (AsPC-1 cells; chemodrug 3000 nM + ATRi 3 nM): 36.69 and 27.57 and 27.01
Response (AsPC-1 cells; chemodrug 3000 nM + ATRi 10 nM): 34.07 and 26.83 and 25.03
Response (AsPC-1 cells; chemodrug 3000 nM + ATRi 30 nM): 28.21 and 28.84 and 28.63
Response (AsPC-1 cells; chemodrug 3000 nM alone (ATRi 0 nM)): 33.73 and 34.70 and 28.11
sensitization of AsPC-1 cells to the chemodrug by Elimusertib (AsPC-1 cells; chemodrug + three sub-EC50 doses of Elimusertib): not

COc1ccc(CN2[C@@H]3C[C@H]2CN(c2ccc(-c4cc(OCC(C)(C)O)cn5ncc(C#N)c45)cn2)C3)cn1 [Selpercatinib]
EC50 (MiaPaCa-2): 2900 nM
EC50 (Suit2-07): 1160 nM
EC50 (PaTu-8988-T): 543 nM
EC50 (Colo-357): 4280 nM
EC50 (Dan-G): 6000 nM
EC50 (BxPC-3): 2980 nM
EC50 (PANC-1): 3470 nM
EC50 (HPDE): 4930 nM
EC50 (PSN-1 [1]): > 10000 nM
EC50 (FAMPAC): > 10000 nM
EC50 (Capan-1): > 10000 nM
EC50 (HuP-T4): 72.1 nM
EC50 (AsPC-1): 4660 nM

CN(C)C(=O)c1cc2cnc(Nc3ccc(N4CCNCC4)cn3)nc2n1C1CCCC1 [Ribociclib]
EC50 (MiaPaCa-2): 1280 nM
EC50 (Suit2-07): 985 nM
EC50 (PaTu-8988-T): 9690 nM
EC50 (Colo-357): 1280 nM
EC50 (Dan-G): 3080 nM
EC50 (BxPC-3): 227 nM
EC50 (PANC-1): > 10000 nM
EC50 (HPDE): 49.6 nM
EC50 (PSN-1 [1]): 2250 nM
EC50 (FAMPAC): 401 nM
EC50 (Capan-1): 491 nM
EC50 (HuP-T4): 1230 nM
EC50 (AsPC-1): 6480 nM
